The target in one test is DRAK2 (Homo sapiens (Human), UniProt O94768). Description: DRAK2 kinase activity inhibition (ADP-Glo, MRCL3 peptide substrate). The test is classed as biochemical. The method, then: (§1) DRAK1 and DRAK2 recombinant proteins were purchased from SignalChem Inc. To measure the kinase enzyme activity, the ADP-Glo™ kit provided by Promega Inc. was used. Buffer A used in the kinase reaction was composed of 60 mM Tris-Cl (pH 7.5), 30 mM MgCl2 and 0.15% BSA. Just before the experiment, 1 mM DTT was prepared by diluting 1 M solution and added thereto.
Sequence of DRAK2 (O94768 whole entry): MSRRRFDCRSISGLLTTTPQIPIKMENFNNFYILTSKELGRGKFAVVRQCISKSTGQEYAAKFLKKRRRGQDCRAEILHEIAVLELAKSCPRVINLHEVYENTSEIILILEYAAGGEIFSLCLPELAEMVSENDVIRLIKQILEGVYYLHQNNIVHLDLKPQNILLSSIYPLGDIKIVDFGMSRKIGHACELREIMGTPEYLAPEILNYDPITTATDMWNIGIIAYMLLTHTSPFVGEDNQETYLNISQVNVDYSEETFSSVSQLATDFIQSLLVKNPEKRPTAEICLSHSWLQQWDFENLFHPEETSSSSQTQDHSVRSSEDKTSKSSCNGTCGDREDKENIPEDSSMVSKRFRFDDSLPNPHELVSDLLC
(§2) To measure the DRAK1 and DRAK2 activity, the substrate MRCL3 peptide and ATP were mixed with the enzymes. After an appropriate period of time, the reaction product ADP was quantitatively analyzed.
(§3) The buffer solution A was used to make a 3× substrate solution of 3× concentration so that the final concentrations of ATP and MRCL3 peptides were 1 uM, respectively, and 2.5 μl of each solution was dispensed into Optiplate 384 (perkin-elmer) microplate.
(§4) The final concentrations of ATP and MRCL3 peptide were made to be 1 uM respectively by using buffer A, followed by preparing a 3× substrate solution. The prepared substrate solution was distributed in Optiplate 384 (Perkin-Elmer) microplate (2.5 ul/well). Then, the compounds of Examples 1˜39 and the compounds of Comparative Examples 1-6, whose concentrations were tripled by the final concentration were distributed thereto (2.5 ul/well). Lastly, DRAK1 or DRAK2 enzyme solution, properly diluted by using buffer A, was added thereto (2.5 ul/well). Centrifugation was performed at 800 rpm for 1 minute, and then enzyme reaction was induced at 30° C.
(§5) 2 hours later, the enzyme reaction was terminated. To eliminate residual ATP, ADP-Glo™ reagent contained in ADP-Glo™ was added to each well at the concentration of 7.5 ul, which was the same amount as the sum of the previously added reagents, followed by centrifugation at the same RPM and time as the above. Additional reaction was induced at room temperature for 40 minutes. To convert the ADP produced by the kinase activity to ATP, 15 ul of kinase detection buffer was added to each well, followed by centrifugation. Five minutes after the centrifugation was completed, the luminescence value of the reaction product was determined using Envision, and the enzyme activity inhibition effect of the compound was measured. Then, IC50 of each compound was determined using Prism program.
(§6) The compounds of Example 1 and Example 19 were used as the experimental group and the compound of Comparative Example 6 was used as the control.
To evaluate DRAK2 inhibition activity of the compound represented by formula 1 according to the number of n, the experiment was performed with the compounds of Example 1, Example 19, Example 40, Comparative Example 7 and W Comparative Example 8 by the same manner as described in Experimental Example 1, leading to the measurement of IC50 to DRAK2.

In another test the target is DRAK1 (Homo sapiens (Human), UniProt Q9UEE5). Kind of test: DRAK1 kinase activity inhibition (ADP-Glo, MRCL3 peptide substrate). The test is classed as biochemical. The method, then: as §1, §2, §3, §4, §5, §6
Sequence of DRAK1 (Q9UEE5 whole entry): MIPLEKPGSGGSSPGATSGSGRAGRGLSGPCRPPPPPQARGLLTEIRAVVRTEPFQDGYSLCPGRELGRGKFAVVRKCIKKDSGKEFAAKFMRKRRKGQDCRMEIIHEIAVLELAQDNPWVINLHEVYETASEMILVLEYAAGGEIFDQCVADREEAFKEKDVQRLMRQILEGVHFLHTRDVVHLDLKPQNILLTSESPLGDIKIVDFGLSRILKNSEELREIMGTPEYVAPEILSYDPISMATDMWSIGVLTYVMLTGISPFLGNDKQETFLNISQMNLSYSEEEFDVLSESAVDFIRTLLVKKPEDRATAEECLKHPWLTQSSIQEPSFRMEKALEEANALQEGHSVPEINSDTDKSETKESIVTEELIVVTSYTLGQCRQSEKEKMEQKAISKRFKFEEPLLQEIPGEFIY
[1] abbreviates: Table 3, recombinant enzyme, 1 uM ATP, 1 uM MRCL3 peptide, 30° C., 2 hours.
The mark [2] stands for this setting: Table 4, Experimental Example 2, DRAK2 selectivity evaluation.
Setting [3] is: Table 5, Experimental Example 3, according to the number of n.

Structures are written as SMILES. pIC50: −log10 of the molar value.

Consider `COc1ccc(Nc2ncc(Cl)c(NCCCN)n2)cc1Cl` [Example 18, N4-(3-aminopropyl)-5-chloro-N2-(3-chloro-4-methoxyphenyl)pyrimidine-2,4-diamine], for which the pIC50 on DRAK2 (setting [1]) was 7.46; on DRAK1 (setting [1]) it was 6.74.

For `NCCCNc1nc(Nc2ccc(Cl)cc2)ncc1Br` [Comparative Example 6, reference compound], the pIC50 at DRAK2 (setting [1]) was 7.57; against DRAK2 (setting [2]), 7.57; on DRAK1 (setting [1]), 7.40; against DRAK1 (setting [2]), 7.40. In addition, on DRAK2 (result in words, from Table 4), the “DRAK2 selectivity (DRAK2 versus DRAK1)” value is “displayed both DRAK1 and DRAK2 inhibition activity”.

With `Cc1cnc(Nc2ccc(Br)cc2)nc1NCCCN` [Example 35, N4-(3-aminopropyl)-N2-(4-bromophenyl)-5-methylpyrimidine-2,4-diamine], the pIC50 on DRAK2 (setting [1]) was 7.05.

`Cc1cnc(Nc2ccc(Cl)cc2)nc1NCCN` [Comparative Example 8, N4-(2-aminoethyl)-N2-(4-chlorophenyl)-5-methylpyrimidine-2,4-diamine, reference compound] showed a pIC50 on DRAK2 (setting [3]) of 6.85.

Regarding `CC(C)c1ccc(Nc2ncc(Cl)c(NCCCN)n2)cc1` [Example 3, N4-(3-aminopropyl)-5-chloro-N2-(4-isopropylphenyl)pyrimidine-2,4-diamine], the pIC50 was 7.96 on DRAK2 (setting [1]) and 6.62 at DRAK1 (setting [1]).

`NCCCNc1nc(Nc2ccc(Br)cc2)ncc1Cl` [Example 17, N4-(3-aminopropyl)-N2-(4-bromophenyl)-5-chloropyrimidine-2,4-diamine]: the values for the pIC50 at DRAK2 (setting [1]) and on DRAK1 (setting [1]) were 7.64 and 6.41, respectively.

For the compound `NCCCNc1nc(Nc2ccc(F)cc2)ncc1Cl` [Example 9, N4-(3-aminopropyl)-5-chloro-N2-(4-fluorophenyl)pyrimidine-2,4-diamine], the figures for the pIC50 on DRAK2 (setting [1]) and on DRAK1 (setting [1]) were 7.72 and 6.54, respectively.

Consider `NCCCNc1nc(Nc2ccc3c(c2)CCCC3=O)ncc1Cl` [Example 24, 6-(4-(3-aminopropylamino)-5-chloropyrimidine-2-ylamino)-3,4-dihydronaphthalene-1(2H)-one], for which the pIC50 is 7.72 on DRAK2 (setting [1]) and 6.64 at DRAK1 (setting [1]).

As for `NCCCNc1nc(Nc2ccc(Cl)cc2)ncc1C(F)(F)F` [Comparative Example 2, N4-(3-aminopropyl)-N2-(4-chlorophenyl)-5-(trifluoromethyl)pyrimidine-2,4-diamine, reference compound], the pIC50 on DRAK2 (setting [1]) is 6.92.

With `NCCCCNc1nc(Nc2cc(Cl)cc(Cl)c2)ncc1Cl` [Example 41, N4-(4-n-aminobutyl)-N2-(3,5-dichlorophenyl)-5-chloropyrimidine-2,4-diamine], at DRAK2 (setting [1]), the pIC50 is 7.51.

On to `Cc1cnc(Nc2ccc(Br)c(C(F)(F)F)c2)nc1NCCCN` [Example 32, N4-(3-aminopropyl)-N2-(4-bromo-3-(trifluoromethyl)phenyl)-5-methylpyrimidine-2,4-diamine], for which, at DRAK2 (setting [1]), the pIC50 was 5.85.

`Cc1ccc(Nc2ncc(C)c(NCCCN)n2)cc1C` [Example 37, N4-(3-aminopropyl)-N2-(3,4-dimethylphenyl)-5-methylpyrimidine-2,4-diamine]: at DRAK2 (setting [1]), the pIC50 was 7.09.

As for `NCCCNc1nc(Nc2ccc3c(c2)OCCO3)ncc1Cl` [Example 22, N4-(3-aminopropyl)-5-chloro-N2-(2,3-dihydrobenzo[b][1,4]dioxin-6-yl)pyrimidine-2,4-diamine], the pIC50 is 7.62 at DRAK2 (setting [1]) and 6.66 on DRAK1 (setting [1]).

For `NCCCNc1nc(Nc2cc(Cl)cc(Cl)c2)ncc1Cl` [Example 2, N4-(3-aminopropyl)-5-chloro-N2-(3,5-dichlorophenyl)pyrimidine-2,4-diamine], the pIC50 at DRAK2 (setting [1]) is 7.59.

Take `NCCCNc1nc(Nc2ccc(N3CCNCC3)cc2)ncc1Cl` [Example 25, N4-(3-aminopropyl)-5-chloro-N2-(4-(piperazine-1-yl)phenyl)pyrimidine-2,4-diamine]: the pIC50 was 7.66 at DRAK2 (setting [1]) and 7.52 at DRAK1 (setting [1]).

For `Cc1cnc(Nc2ccc(N3CCNCC3)cc2)nc1NCCCN` [Example 29, N4-(3-aminopropyl)-5-methyl-N2-(4-(piperazine-1-yl)phenyl)pyrimidine-2,4-diamine], on DRAK2 (setting [1]), the negative logarithm of the IC50 (pIC50) is 7.00.

As for `Cc1cnc(Nc2ccc3c(c2)OCCO3)nc1NCCCN` [Example 36, N4-(3-aminopropyl)-N2-(2,3-dihydrobenzo[b][1,4]dioxin-6-yl)-5-methylpyrimidine-2,4-diamine], the pIC50 at DRAK2 (setting [1]) was 6.96.

Turning to `CCCCCc1ccc(Nc2ncc(Cl)c(NCCCN)n2)cc1` [Example 4, N4-(3-aminopropyl)-5-chloro-N2-(4-pentylphenyl)pyrimidine-2,4-diamine], at DRAK2 (setting [1]), the pIC50 is 7.10.

Regarding `NCCCNc1nc(Nc2ccc(Cl)cc2)ncc1[N+](=O)[O-]` [Comparative Example 5, N4-(3-aminopropyl)-N2-(4-chlorophenyl)-5-nitropyrimidine-2,4-diamine, reference compound], the pIC50 at DRAK2 (setting [1]) is 6.49.

As to `NCCCNc1nc(Nc2ccc(C3CCNCC3)cc2)ncc1Cl` [Example 26, N4-(3-aminopropyl)-5-chloro-N2-(4-(piperidine-4-yl)phenyl)pyrimidine-2,4-diamine], the pIC50 at DRAK2 (setting [1]) was 7.72.

Take `Cc1cnc(Nc2ccc(Cl)c(Cl)c2)nc1NCCCN` [Example 39, N4-(3-aminopropyl)-N2-(3,4-dichlorophenyl)-5-methylpyrimidine-2,4-diamine]: the pIC50 on DRAK2 (setting [1]) is 7.12.

For `COc1cnc(Nc2ccc(Cl)cc2)nc1NCCCN` [Comparative Example 3, N4-(3-aminopropyl)-N2-(4-chlorophenyl)-5-methoxypyrimidine-2,4-diamine, reference compound], the pIC50 at DRAK2 (setting [1]) was 6.06.

For the compound `NCCCNc1ccnc(Nc2ccc(Cl)cc2)n1` [Comparative Example 4, N4-(3-aminopropyl)-N2-(4-chlorophenyl)pyrimidine-2,4-diamine, reference compound], the pIC50 at DRAK2 (setting [1]) was 5.96.

On to `Cc1cnc(Nc2ccc(Oc3ccccc3)cc2)nc1NCCCN` [Example 33, N4-(3-aminopropyl)-5-methyl-N2-(4-phenoxyphenyl)pyrimidine-2,4-diamine], for which the pIC50 at DRAK2 (setting [1]) was 6.31.

As for `Cc1cnc(Nc2ccc(F)c(Cl)c2)nc1NCCCN` [Example 38, N4-(3-aminopropyl)-N2-(3-chloro-4-fluorophenyl)-5-methylpyrimidine-2,4-diamine], the pIC50 at DRAK2 (setting [1]) was 7.46.

As to `Cc1ccc(Nc2ncc(C)c(NCCCN)n2)cc1Cl` [Example 27, N4-(3-aminopropyl)-N2-(3-chloro-4-methylphenyl)-5-methylpyrimidine-2,4-diamine], on DRAK2 (setting [1]), the pIC50 was 7.01.

Regarding `CCCCCCCCc1ccc(Nc2ncc(Cl)c(NCCCN)n2)cc1` [Example 5, N4-(3-aminopropyl)-5-chloro-N2-(4-octylphenyl)pyrimidine-2,4-diamine], the pIC50 on DRAK2 (setting [1]) is 6.13.

`NCCCNc1nc(Nc2ccc(Cl)cc2)ncc1F` [Comparative Example 1, N4-(3-aminopropyl)-N2-(4-chlorophenyl)-5-fluoropyrimidine-2,4-diamine, reference compound]: the pIC50 on DRAK2 (setting [1]) is 6.52.

As for `Cc1cnc(Nc2ccc3c(c2)CCCC3)nc1NCCCN` [Example 30, N4-(3-aminopropyl)-5-methyl-N2-(5,6,7,8-tetrahydronaphthalene-2-yl)pyrimidine-2,4-diamine], on DRAK2 (setting [1]), the pIC50 is 6.80.

As for `Cc1cnc(Nc2ccc(F)cc2)nc1NCCCN` [Example 28, N4-(3-aminopropyl)-N2-(4-fluorophenyl)-5-methylpyrimidine-2,4-diamine], the pIC50 at DRAK2 (setting [1]) is 6.72.

Consider `Cc1cnc(Nc2ccc(S(=O)(=O)c3ccc([N+](=O)[O-])cc3)cc2)nc1NCCCN` [Example 34, N4-(3-aminopropyl)-5-methyl-N2-(4-(4-nitrophenylsulfonyl)phenyl)pyrimidine-2,4-diamine], for which the pIC50 on DRAK2 (setting [1]) was 6.47.

Turning to `NCCNc1nc(Nc2ccc(Cl)cc2)ncc1Cl` [Comparative Example 7, N4-(2-aminoethyl)-5-chloro-N2-(4-chlorophenyl)pyrimidine-2,4-diamine, reference compound], the pIC50 against DRAK2 (setting [3]) was 6.96.

Turning to `Cc1cnc(Nc2ccc(F)c(C(F)(F)F)c2)nc1NCCCN` [Example 31, N4-(3-aminopropyl)-N2-(4-fluoro-3-(trifluoromethyl)phenyl)-5-methylpyrimidine-2,4-diamine], the pIC50 at DRAK2 (setting [1]) was 6.74.
